For one data set, the system named is MCF-7 cells. Briefly: AEM field-induced drug release in MCF-7 cells; dead (floating) cells counted by hemocytometer after 48 h. Format: cell-based, Human. The conditions noted are these: AEM field exposure No, no Fe3O4, 0.3 mg Dox. Here is the method: Breast cancer MCF-7 cells were treated with the resultant Dox-NP formulations, and the treated cells then were either allowed to incubate or briefly exposed to an AEM field to induce drug release from the Dox-NP formulations.
AEM field study. Results of MCF-7 cells treated with nanoparticle-doxorubicin formulations followed by alternating electromagnetic (AEM) field exposure (15 mins, 350 A, 203 KHz) were obtained. Cells plated in 30 mm dishes were treated with NP formulations at a 0.5 mg Fe3O4 dose unless otherwise specified. Doxorubicin loadings per mg NP formulation were as follows: dNP.AO.Dox (0.64 mg Dox/mg), sNP.AO.Dox (0.43 mg Dox/mg), NP.Dox (0.05 mg Dox/mg). […]
Cell culture toxicity study. Human breast cancer cells (MCF-7) were purchased from American Type Culture Collection (VA, USA). Cells were plated in 30 mm dishes at ˜4˜10^5 cells/dish, and then grown up to 50-60% confluency in DMEM, 1% Pennstrep (Mediatech, Inc, VA) and 10% FBS (Valley Biomedical, Winchester, Va.).
Alternating electromagnetic field-induced drug release in MCF-7 cells. […]
Each measured amount of NP formulation was diluted to 2 mL by adding DMEM containing 10% FBS. […]

A short description of data set [1]: AEM field-mediated release of FITC conjugates from NP.(AO).FITC particles, supernatant fluorescence (HPLC). Format: physicochemical. The conditions noted are these: water, AEM field 201.4 A, 203 kHz, 30 minutes, after washes. From the text: The fluorophore FITC-CHO was attached to iron oxide nanoparticles by reaction with NP-bound aminooxy compounds (previously described compounds 6.1, 7.1 and the diol analog of 7.1) to show the influence of resident hydroxyl functionality on the binding and release properties of derived iron oxide formulations. Scheme E below depicts the fluorophore aldehyde and the three oxime ether conjugates selected for this study. Using the stepwise synthesis method, FITC-CHO was mixed with NP-AO particles derived from the three aminooxy compounds to give the NP.(AO).FITC fluorophore formulations. […] The relative binding and release properties were measured by fluorescence spectroscopy on the supernatant solutions after magnetic separation of the nanoparticles and/or NP.(AO).FITC particles.
Integration of the supernatant fluorescence after NP washing and after AEM field irradiation is indicative of the binding to the nanoparticles and the release of FITC into the supernatant. […]
To a suspension of the NP.AO (3 mg) in methanol at room temperature was added a solution of FITC-CHO in methanol (0.01M, 50 μL/mg of NP.AO). […] The particles then were magnetically separated, the supernatant was removed and analyzed. The particles were washed twice with methanol (3× reaction volume) and the supernatants collected each time and analyzed. […]

This note sets out measurements from patent publication US20120302516A1, “NANOPARTICLES FOR DRUG DELIVERY” (UNIVERSITY OF LOUISVILLE RESEARCH FOUNDATION, INC., priority 2009, published 2012).

Structures can show the parent of a compound that is named as a salt.

As for `COc1cccc2c1C(=O)c1c(O)c3c(c(O)c1C2=O)C[C@@](O)(C(=O)CO)C[C@@H]3O[C@H]1C[C@H](N)[C@H](O)[C@H](C)O1` [Dox, doxorubicin.HCl], in the data set on MCF-7 cells (continuation line of the cell death cell), the “MCF-7 cell death, extent (major/minor)” value is recorded as “(major)”. Further, in the data set with MCF-7 cells (relative to 'cells only' control, 48 h), the MCF-7 cell death result was “Yes”.

Take `O=CCCCNC(=S)Nc1ccc(-c2c3ccc(=O)cc-3oc3cc(O)ccc23)c(C(=O)O)c1` [FITC-CHO]: in data set [1], the “release into supernatant (fluorescence) after AEM field exposure” value was “no recovery of fluorescence after exposure to an AEM field”.

In the case of `C[N+](CCO)(CCO)CCO/N=C/CCCNC(=S)Nc1ccc(-c2c3ccc(=O)cc-3oc3cc(O)ccc23)c(C(=O)O)c1` [FITC-III], the “release into supernatant (fluorescence) after AEM field exposure” value in data set [1] is on record as “considerable FITC-conjugate is released into solution”.
